In assay [1] the test system is aA-crystallin-Y118D and aB-crystallin-R120G. Nature of the assay: Dissolving of accumulated crystal protein in cells carrying two crystallin mutant plasmids. The settings on record: 10 uM, compared with 1% DMSO solution. Format: cell-based. The protocol: FIG. 13. Two mutant crystal proteins were introduced into cells. The accumulated crystal protein were treated by adding different agents.
Cyclopentanoperhy drophenanthrene compounds of the present invention refers to a compound containing cyclopentanoperhy drophenanthrene skeleton structure, including its derivatives. After the two crystal protein mutant plasmid aA-crystallin-Y118D and aB-crystallin-R120G were introduced into cells, we investigated the lanosterol and its derivatives as well as cholesterol (Cholesterol) for their effects on intracellular accumulation of crystal protein. Not all cyclopentanoperhy drophenanthrene compound have the same effect.

The target in assay [2] is T1, αB-crystallin R120G mutant (Homo sapiens, UniProt P02511, R120G).
T1 construct: made in house
T1 sequence (P02511 1-175 R120G): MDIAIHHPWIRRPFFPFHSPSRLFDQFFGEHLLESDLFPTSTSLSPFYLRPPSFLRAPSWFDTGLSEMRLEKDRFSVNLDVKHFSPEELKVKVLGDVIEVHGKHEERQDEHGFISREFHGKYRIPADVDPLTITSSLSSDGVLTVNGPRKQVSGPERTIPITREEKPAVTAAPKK
Nature of the assay: Negative-stain EM of aggregates treated with sterol in liposome. In kind it is biochemical. The settings on record: negatively stained EM. On the procedure:
Representative negatively stained EM pictures of the aggregates of αB-crystallin R120G mutant treated by liposome, lanosterol in liposome and cholesterol in liposome, respectively. The EM samples were stained by 1.25% uranyl acetate.
Quantitative analysis was performed by calculating the number of particles with length over 50 nm from six randomly picked viewing field. Each viewing field contained 30-50 particles.
The aggregates of the WT and mutated αA- and αB-crystallin proteins were obtained by heating the proteins solutions containing 1 M guanidine chloride (ultrapure, Sigma) with a concentration of 5 mg/ml at 60° C. for 48 h. The aggregates of the WT and mutated β- and γ-crystallins were prepared by heating the protein solutions at pH 3 and 37° C. for 48 h. The formation of aggregates was confirmed by turbidity (absorbance at 400 nm) and transmission electron microscope (EM) measurements. The preformed aggregates were resuspended in 20 mM PBS with a final concentration of 0.1 mg/ml (approximately 5 μM). The resuspended aggregates were treated by 50 μM lanosterol or cholesterol in liposomes formed by 50 μM DPPS at 37° C. […] The soluble proteins were determined by centrifuge the protein solutions to separate the supernatant and precipitation fractions. Then the protein concentration in the supernatant was determined by the Bradford method. […]

For assay [3], the system named is aggregates of various WT and mutated crystallins. Nature of the assay: In vitro protein assay: dissociation of preformed crystallin aggregates (turbidity, soluble protein, EM). Format: biochemical. As to conditions: 37° C. The protocol: Evaluation of the effect of lanosterol on the dissolution of crystallin aggregates by turbidity. Crystallin aggregates were formed by incubating 5mgml21 protein solution at 60° C. for 2 h (α-crystallins) or 37° C. for 48 h (β- and γ-crystallins) in the presence of 1M guanidine chloride. The preformed aggregates were re-suspended in PBS at a final protein concentration of 0.2 mg/ml and were treated with 500 μM sterols in 500 μM DPPC liposome and incubated at 37° C. for 24 h. Aggregates treated with 500 μM DPPC liposome only were used as the controls.
The α-crystallin aggregates were formed by incubating 5 mg/ml protein solutions at 60° C. for 48 h in the presence of 1 M guanidine chloride. The β- and γ-crystallin aggregates were prepared by incubating the protein solutions at 37° C. and pH 3 for 48 h. The preformed aggregates were re-suspended in PBS with a final protein concentration of 0.1 mg/ml. The re-suspended aggregates were treated by 50 μM sterols in 50 μM DPPS liposome and incubated at 37° C. for 144 h. The aggregates treated by 50 μM DPPS liposome were used as the controls. The supernatant and precipitation fractions were separated by centrifugation. The protein concentrations in the supernatant fraction were determined by absorbance at 280 nm and the percentages of the soluble proteins were calculated from three independent repetitions.
The recombinant his-tagged WT and mutated β- and γ-crystallin proteins were overexpressed in E. coli Rosetta and purified by Ni-NTA affinity column followed by gel filtration chromatography using the same protocol as those described elsewhere 13,14,16,18. The overexpression and purification of the non-tagged αA- and αB-crystallins were performed as described previously 19. The purity of the proteins were estimated to be above 95% as evaluated by one homogeneous band on 12.5% SDS-PAGE, 10% native-PAGE and a single peak in the size-exclusion chromatographyprofile. The protein concentration was determined according to the Bradford method by using BSA as the standard 20. All protein samples were prepared in 20 mM PBS buffer containing 150 mM NaCl, 1 mM EDTA and 1 mM DTT.
The aggregates of the WT and mutated αA- and αB-crystallin proteins were obtained by heating the proteins solutions containing 1 M guanidine chloride (ultrapure, Sigma) with a concentration of 5 mg/ml at 60° C. for 48 h. The aggregates of the WT and mutated β- and γ-crystallins were prepared by heating the protein solutions at pH 3 and 37° C. for 48 h. The formation of aggregates was confirmed by turbidity (absorbance at 400 nm) and transmission electron microscope (EM) measurements. The preformed aggregates were resuspended in 20 mM PBS with a final concentration of 0.1 mg/ml (approximately 5 μM). The resuspended aggregates were treated by 50 μM lanosterol or cholesterol in liposomes formed by 50 μM DPPS at 37° C. After 72 h treatment, the protein solutions were used for negative-stained EM observations. After 144 h incubation, the protein solutions were used for turbidity measurements and determinations of protein concentrations in the soluble fractions. The soluble proteins were determined by centrifuge the protein solutions to separate the supernatant and precipitation fractions. Then the protein concentration in the supernatant was determined by the Bradford method. The EM samples were prepared by depositing the protein solutions onto a freshly glow-discharged carbon coated copper grid. […]

For assay [4], the system named is various cataract-causing crystallin mutants. Nature of the assay: Aggresome / intracellular aggregate formation of crystallin mutants in transfected cells (confocal microscopy). Format: cell-based. The settings on record: 0-40 μM sterols in 2% DMSO, 2 h treatment then 12 h culture; lanosterol effect dose-dependent. On the procedure: The effect of lanosterol or cholesterol on the aggresome formation of various crystallins was studied by transfecting the cells using plasmids containing various crystallin genes. The cells were cultivated for 24 h to enable efficient protein expression and aggresome formation. Then the cells were treated with 0-40 μM sterols in 2% DMSO. The cells treated with 2% DMSO were used as the control. After treatment for 2 h, the cells were moved to fresh DMEM medium containing 10% fetal bovine serum and further cultivated for 12 h. Then the cells were used for microscopy analysis.
The microscopy samples were prepared by washing the slips by phosphate buffered saline (PBS) three times. The cells were fixed with 4% paraformaldehyde for 40 min followed by three times washing with PBS. The cells were permeabilized with 0.1% Triton X-100 (Sigma) in PBS for 10 min and blocked with 5% normal goat serum in PBS for 1 h at 37° C. Immunostaining was carried out by adding mouse anti-Flag antibody (1:500) or anti-p62 antibody (1:200) in PBS buffer containing 5% normal goat serum and cultivated for 1 h at 37° C. Then the slips were washed three times with PBS, and further incubated with Alexa 649-conjugated goat anti-mouse IgG (1:250) for 1 h at ambient temperature. The nuclei were counterstained with Hoechst 33342. The mounted cells were analyzed using a Carl Zeiss LSM 710 confocal microscope.

Entries after “also recorded” stand apart in the source; their conditions may differ.

On to `CC(C)=CCC[C@@H](C)[C@H]1CC[C@@]2(C)[C@@H]3CC[C@H]4C(C)(C)[C@@H](O)CC[C@]4(C)C3=CC[C@]12C` [Parkeol], for which the “dissolving of accumulated crystal protein” value (“dissolving” for short) is “significant dissolving of the accumulated crystal protein” in assay [1] and “significantly dissolve accumulated crystals protein” in assay [1] (listed as parkeol).

Regarding `CC(C)CCC[C@@H](C)[C@H]1CC[C@H]2[C@@H]3CC[C@H]4C[C@@H](O)CC[C@]4(C)[C@H]3CC[C@]12C` [β-cholestanol], the “dissolving” value in assay [1] is listed as “significantly dissolve accumulated crystals protein; also recorded: significant dissolving of the accumulated crystal protein”.

On to `CC(C)[C@@H](C)/C=C/[C@@H](C)[C@H]1CC[C@H]2C3=CC=C4C[C@@H](O)CC[C@]4(C)[C@H]3CC[C@]12C` [ergosterol], for which, in assay [1], the “dissolving” value is recorded as “significantly dissolve accumulated crystals protein; also recorded: significant dissolving of the accumulated crystal protein”.

Turning to `CC(C)CCC[C@@H](C)[C@H]1CC[C@H]2[C@@H]3CC=C4C[C@@H](O)CC[C@]4(C)[C@H]3CC[C@]12C` [Cholesterol, reference compound], in assay [1], the “dissolving” value is recorded as “cannot effectively dissolve”. The “dissociation of aggregates formed by αB-crystallin R120G mutant (number of particles with length over 50 nm)” value in assay [2] was “not”. Moreover, the “dissolution of crystallin aggregates by turbidity” value in assay [3] (500 μM sterols in 500 μM DPPC liposome, 24 h, 0.2 mg/ml protein) was “could not”. The “dissociation of aggregates of various WT and mutated crystallins” value in assay [3] (in vitro protein assay, 50 μM sterol in 50 μM DPPS liposome) was “could not and not”. Besides, in assay [4], the “intracellular aggregation of various cataract-causing crystallin mutants” value was “did not affect the formation of intracellular aggregates”.

Take `CC(C)CCC[C@@H](C)[C@H]1CC[C@H]2C3=CC[C@H]4C[C@@H](O)CC[C@]4(C)[C@H]3CC[C@]12C` [5α-cholest-7-en-3β-ol]: the “dissolving” value was “significant dissolving of the accumulated crystal protein” in assay [1] and “significantly dissolve accumulated crystals protein” in assay [1] (listed as 5a-cholest-7-en-3β-ol).

`CC(C)=CCC[C@@H](C)[C@H]1CC[C@H]2C3=C(CC[C@]12C)[C@@]1(C)CC[C@H](O)C[C@@H]1CC3` [Zymosterol, 5α-Cholesta-8,24-dien-3β-ol]: the entries for the “dissolving” value in assay [1] and in assay [1] (listed as zymosterol) were “significant dissolving of the accumulated crystal protein” and “significantly dissolve accumulated crystals protein”, respectively.

The record behind these values is US20190117675A1, “Compositions And Methods To Treat And/Or Prevent Vision Disorders Of The Lens Of The Eye” (Helix Holding Company, priority 2014, published 2019).
